Laboratory results as given in patent publication US20070232657A1, “NOVEL COMPOUNDS” (GLAXO GROUP LIMITED, priority 2006, published 2007).

Experiments:
[1] = test system: longitudinal muscle strips from the rat gastric forestomach; assay: Rat isolated forestomach assay (EFS-evoked contractions)
Description: Rat Isolated Forestomach Assay
Longitudinal muscle strips with mucosa partially removed were,obtained from the rat gastric forestomach, and suspended under an initial “load” of 1 g for isometric recording between two platinum ring electrodes, in 5 or 10 ml tissue baths containing Krebs solution bubbled with 5% CO2/95% O2 and maintained at 37° C. Following an equilibration period of 30 min, during which time the tissues were flushed every 15 minutes with fresh Krebs solution, tissues were stimulated with electrical field stimulation (EFS) [50V for 10 ml bath, 25V for 5 ml bath, at 2.5 Hz 0.5 ms pulse duration, for 10 s, every 1 min]. The tissues were left stimulating for at least 30 min. After obtaining consistent responses to EFS, the test compound was added to the bathing solution, each dose left in contact for at least 10 minutes. The % potentiation of contractions to EFS were measured as the area of 4 maximum EFS contractions after addition of compound relative to the area of 4 maximum EFS contractions before addition of the lowest concentration of compound. Data are expressed as means standard error of the mean; n-values are per animal used.

5HT2b = 5HT2b (Homo sapiens, UniProt P41595); assay: 5HT2b antagonist activity (no method given)
5HT2b, sequence (P41595 whole entry, species assumed): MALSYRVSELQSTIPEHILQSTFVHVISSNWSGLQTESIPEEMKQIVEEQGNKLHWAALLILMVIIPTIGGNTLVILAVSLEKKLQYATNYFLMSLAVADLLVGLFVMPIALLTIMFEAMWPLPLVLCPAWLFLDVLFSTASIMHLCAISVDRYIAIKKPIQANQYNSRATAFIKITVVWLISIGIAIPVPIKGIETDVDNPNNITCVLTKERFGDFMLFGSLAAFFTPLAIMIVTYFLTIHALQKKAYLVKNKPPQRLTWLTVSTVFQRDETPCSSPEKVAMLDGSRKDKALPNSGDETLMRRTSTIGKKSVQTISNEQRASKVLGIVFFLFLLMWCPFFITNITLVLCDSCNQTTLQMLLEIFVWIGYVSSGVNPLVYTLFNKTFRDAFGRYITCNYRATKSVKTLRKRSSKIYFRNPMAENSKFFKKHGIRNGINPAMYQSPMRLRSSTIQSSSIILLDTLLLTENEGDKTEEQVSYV

human 5-HT4a receptor [2] = target: T1, human 5-HT4a receptor (Homo sapiens, UniProt Q13639); assay: Mammalian functional 5-HT4a agonist assay (HEK-293-MSR-II cells, FLIPR); assay type: cell-based; design: expressed in transfected cells; host or cells: HEK-293-MSR-II cells transduced with BacMam viruses
T1 sequence (Q13639 1-387 isoform Q13639-2): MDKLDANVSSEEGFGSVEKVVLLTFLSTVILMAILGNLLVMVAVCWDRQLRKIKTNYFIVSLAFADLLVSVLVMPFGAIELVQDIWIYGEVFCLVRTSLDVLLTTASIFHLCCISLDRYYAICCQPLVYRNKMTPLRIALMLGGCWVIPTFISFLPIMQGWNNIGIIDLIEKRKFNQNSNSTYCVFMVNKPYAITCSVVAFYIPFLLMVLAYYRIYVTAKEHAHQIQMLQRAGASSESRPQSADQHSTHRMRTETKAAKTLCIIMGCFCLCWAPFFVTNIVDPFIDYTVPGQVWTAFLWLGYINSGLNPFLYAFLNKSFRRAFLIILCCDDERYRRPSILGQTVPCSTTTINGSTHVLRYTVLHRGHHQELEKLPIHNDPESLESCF
Description: Mammalian Functional 5-HT4a Agonist Assay
Human embryonic kidney cells stably expressing the human macrophage scavenger receptor type II (HEK-293-MSR-II cells) were established in-house (Lysko PG et al., J Pharmacol Exp Ther. 289(3):1277-85). These cells were grown in humidified conditions in Minimum Essential Medium containing 10% fetal calf serum (FCS), 1× non-essential amino acids, 2 mM L-glutamine and 0.4 mg/ml geneticin at 37° C./5% CO2.
BacMam plasmid constructs for the production of viruses for expression in mammalian cells were generated as described (Condreay J P et al., Proc. Natl. Acad. Sci. 96:127-132, Ames R et al., Receptors Channels 10(3-4):117-24). […]
The next day 50 μl Fluo4am dye (at 6 μM in Tyrodes buffer containing 1.5 mM calcium chloride and 2.5mM probenicid) was added to each well and incubated at 37° C./5% CO2 for one hour. […] A Fluorimetric Imaging Plate Reader (FLIPR) was used to add the compounds to the cells (50 μl per well) and to determine peak fluorescence emitted per well over the whole assay period.

human 5-HT4a receptor [3] = target: T1, human 5-HT4a receptor; assay: Yeast functional 5-HT4a agonist assay; assay type: cell-based; design: expressed in transfected cells; host or cells: Saccharomyces cerevisiae strain MMY23 (expression cassette integrated at the ura3 locus); conditions: n=9
Description: Yeast Functional 5-HT4a Agonist Assay
Yeast (Saccharomyces cerevisiae) cells expressing the human 5-HT4a receptor were generated by integration of an expression cassette into the ura3 chromosomal locus of yeast strain MMY23. This cassette consisted of DNA sequence encoding the human 5-HT4a receptor flanked by the yeast glyceraldehyde-3-phosphate dehydrogenase (GPD) promoter to the 5′ end of 5-HT4a and a yeast transcriptional terminator sequence to the 3′ end of 5-HT4a. MMY23 expresses a yeast/mammalian chimeric G-protein alpha subunit in which the C-terminal 5 amino acids of Gpa1 are replaced with the C-terminal 5 amino acids of human Gil (as described in Brown et al. (2000), Yeast 16:11-22). Cells were grown at 30° C. in liquid Synthetic Complete (SC) yeast media (Guthrie and Fink (1991), Methods in Enzymology, Vol.194) lacking uracil, tryptophan, adenine and leucine to late logarithmic phase (approximately 6 OD600/ml).
Agonists were prepared as 10 mM stocks in DMSO. EC50 values (the concentration required to produce 50% maximal response) were estimated using serial dilutions of between 3- and 5-fold (BiomekFX, Beckman) into DMSO. pEC50 corresponds to negative log10 of molar EC50. […] After incubation at 30° C. for 24 hours, fluorescence resulting from degradation of FDGlu to fluorescein due to exoglucanase, an endogenous yeast enzyme produced during agonist-stimulated cell growth, was determined (excitation wavelength: 485 nm; emission wavelength: 535 nm) using a Spectrofluor (Tecan) or similar microtitre plate reader. Fluorescence was plotted against compound concentration and iteratively curve fitted using a four parameter fit to generate a concentration effect value. […]
Where Max[compound X] and Min[compound X] are the fitted maximum and minimum respectively from the concentration effect curve for compound X, and Max[5-HT] and Min[5-HT] are the fitted maximum and minimum respectively from the concentration effect curve for 5-hydroxytryptamine. Equieffective molar ratio (EMR) values were calculated from the equation: EMR=EC50 [compound X]/EC50 [5-HT] […]

Row | SMILES | gastroprokinetic activity ([1]; in vitro, rat forestomach assay) | 5HT2b antagonist activity (5HT2b) | % potentiation of contractions to EFS, Mean ([1]; 1 nM E1, n=5) [%] | % potentiation of contractions to EFS, Mean ([1]; 10 nM E1, n=5) [%] | % potentiation of contractions to EFS, Mean ([1]; 100 nM E1, n=5) [%] | % potentiation of contractions to EFS, Mean ([1]; 1 μM E1, n=5) [%] | % potentiation of contractions to EFS, Mean ([1]; 10 μM E1, n=5) [%] | EC50 (human 5-HT4a receptor [2]; HEK-293-MSR-II cells, BacMam 5-HT4a + Gα16, n=12, read-out: mean pEC50 (converted)) [nM] | mean efficacy (human 5-HT4a receptor [2]; relative to maximal effect of 5-HT, n=12) [%] | EMR (equieffective molar ratio, EC50 compound/EC50 5-HT) (human 5-HT4a receptor [3]; relative to 5-HT) | Emax (human 5-HT4a receptor [3]; relative to 5-hydroxytryptamine, read-out: Mean efficacy (Emax relative to 5-HT)) [%] | EC50 (human 5-HT4a receptor [3]; yeast cells expressing human 5-HT4a, read-out: Mean pEC50 (converted)) [nM]
1 | Nc1c(Br)cc(C(=O)NCC2CCN(CC3CCOCC3)CC2)c2c1CCCO2 [(A), 5-amino-6-bromo-N-{[1-(tetrahydro-2H-pyran-4-ylmethyl)-4-piperidinyl]methyl}-3,4-dihydro-2H-chromene-8-carboxamide] | exhibits gastroprokinetic activity | exhibit 5HT2b antagonist activity | – | – | – | – | – | – | – | – | – | –
2 | Cl.Nc1c(Br)cc(C(=O)NCC2CCN(CC3CCOCC3)CC2)c2c1CCCO2 [Example E1, 5-Amino-6-bromo-N-{[1-(tetrahydro-2H-pyran-4-ylmethyl)-4-piperidinyl]methyl}-3,4-dihydro-2H-chromene-8-carboxamide hydrochloride] | – | – | 12.89 | 50.62 | 89.57 | 115.46 | 181.32 | 2.29 | 70 | 0.281 | 94 | 0.501
